From US5061794A, “Cephalosporin derivatives, and antibacterial agents” (priority 1986, dated 1991)
Where a name gives a salt, the structure may show the parent alone. Read-outs that look alike come from different tables or passages of the source.

Columns and labels:
E. coli CSH(RE45) = assay: microbe, parasite or virus in culture; type: cell-based; settings: Escherichia coli, 16 h, read-out: Minimum Inhibitory Concentration (MIC), *E. coli CSH(RE45), lactamase-producing strain; 10^6 CFU/ml
Procedure, shortened: (§1)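 Each organism, pre-grown overnight in Mueller Hinton broth, is inoculated at 10^6 CFU/ml onto Mueller Hinton agar series with increasing compound concentration; growth inhibition is scored after 16 h, 37° C., giving MIC (μg/ml).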

E. coli CSH2 (RK1) = assay: microbe, parasite or virus in culture; type: cell-based; settings: Escherichia coli, 16 h, read-out: Minimum Inhibitory Concentration (MIC), *E. coli CSH2 (RK1), lactamase-producing strain; 10^6 CFU/ml
Procedure, shortened: as §1

E. cloacae 963 = assay: in vitro antibacterial activity, agar plate dilution method (MIC); type: cell-based; settings: 10^6 CFU/ml
Procedure, shortened: as §1

E. cloacae Nek 39 = assay: as above; type: cell-based; settings: Enterobacter cloacae, NEK39, 16 h, 10^6 CFU/ml
Procedure, shortened: as §1

E. coli GN5482 = assay: as above; type: cell-based; settings: Escherichia coli, GN5482, 16 h
Procedure, shortened: as §1

E. coli NIHJ JC2 = assay: as above; type: cell-based; settings: Escherichia coli, NIHJJC2, 16 h, read-out: Minimum Inhibitory Concentration (MIC), E. coli NIHJ JC2, 10^6 CFU/ml, 37° C.
Procedure, shortened: as §1

K. oxytoca GN10650 = assay: as above; type: cell-based; settings: Klebsiella oxytoca, 10^6 CFU/ml
Procedure, shortened: as §1

K. pneumoniae No. 42 = assay: as above; type: cell-based; settings: Klebsiella pneumoniae, NO.42, 16 h, read-out: Minimum Inhibitory Concentration (MIC), *K. pneumoniae No. 42, lactamase-producing strain; 10^6 CFU/ml
Procedure, shortened: as §1

K. pneumoniae PCI-602 = assay: as above; type: cell-based; settings: Klebsiella pneumoniae, PCI602, 16 h, 10^6 CFU/ml
Procedure, shortened: as §1

M. morganii GN5407 = assay: as above; type: cell-based; settings: Morganella morganii, GN5407, 16 h, read-out: Minimum Inhibitory Concentration (MIC), *M. morganii GN5407, lactamase-producing strain; 10^6 CFU/ml
Procedure, shortened: as §1

P. vulgaris HX-19 = assay: as above; type: cell-based; settings: Proteus vulgaris, HX19, 16 h, P. vulgaris HX-19; 10^6 CFU/ml; read-out: Minimum Inhibitory Concentration (MIC)
Procedure, shortened: as §1

P. vulgaris No. 33 = assay: as above; type: cell-based; settings: Proteus vulgaris, NO.33, 16 h, read-out: Minimum Inhibitory Concentration (MIC), *P. vulgaris No. 33, lactamase-producing strain; 10^6 CFU/ml
Procedure, shortened: as §1

S. aureus 209P NIHJ-JC1 = assay: as above; type: cell-based; settings: Staphylococcus aureus, 16 h
Procedure, shortened: as §1

S. marcescens IAM 1184 = assay: as above; type: cell-based; settings: Serratia marcescens, IAM1184, 16 h, read-out: Minimum Inhibitory Concentration (MIC)
Procedure, shortened: as §1

S. marcescens No. 16-2 = assay: as above; type: cell-based; settings: Serratia marcescens, NO.162, 16 h, 10^6 CFU/ml
Procedure, shortened: as §1

Ps. aeruginosa AK 109 = assay: as above; type: cell-based, Pseudomonas aeruginosa; settings: Pseudomonas aeruginosa, AK109, 16 h, Ps. aeruginosa AK 109; 10^6 CFU/ml; read-out: Minimum Inhibitory Concentration (MIC)
Procedure, shortened: as §1

Ps. aeruginosa AKR17 = assay: as above; type: cell-based, Pseudomonas aeruginosa; settings: Pseudomonas aeruginosa, 16 h; Ps. aeruginosa AKR17; 10^6 CFU/ml; read-out: Minimum Inhibitory Concentration (MIC)
Procedure, shortened: as §1

Ps. aeruginosa IF03445 = assay: as above; type: cell-based, Pseudomonas aeruginosa; settings: Pseudomonas aeruginosa, 10^6 CFU/ml
Procedure, shortened: as §1

Ps. cepacia 23 = assay: as above; type: cell-based, Pseudomonas cepacia; settings: read-out: Minimum Inhibitory Concentration (MIC)
Procedure, shortened: as §1

A. calcoaceticus No. 4 = assay: as above; type: cell-based, Acinetobacter calcoaceticus; settings: Acinetobacter calcoaceticus, NO.4, 16 h, 10^6 CFU/ml
Procedure, shortened: as §1

[1] = Enterobacter cloacae, 16 h, E. cloacae 963, read-out: Minimum Inhibitory Concentration (MIC)
[2] = read-out: Minimum Inhibitory Concentration (MIC), *E. cloacae Nek 39, lactamase-producing strain
[3] = GN10650, 16 h, read-out: Minimum Inhibitory Concentration (MIC), *K. oxytoca GN10650, lactamase-producing strain
[4] = read-out: Minimum Inhibitory Concentration (MIC), K. pneumoniae PCI-602
[5] = read-out: Minimum Inhibitory Concentration (MIC)
[6] = read-out: Minimum Inhibitory Concentration (MIC), *S. marcescens No. 16-2, lactamase-producing strain
[7] = IF03445, 16 h, read-out: Minimum Inhibitory Concentration (MIC), Ps. aeruginosa IF03445
[8] = A. calcoaceticus No. 4, read-out: Minimum Inhibitory Concentration (MIC)

SMILES | MIC (E. coli CSH(RE45)) [µg/mL] | MIC (E. coli CSH2 (RK1)) [µg/mL] | MIC (E. cloacae 963; [1]) [µg/mL] | MIC (E. cloacae Nek 39; [2]) [µg/mL] | MIC (E. coli NIHJ JC2) [µg/mL] | MIC (K. oxytoca GN10650; [3]) [µg/mL] | MIC (K. pneumoniae No. 42) [µg/mL] | MIC (K. pneumoniae PCI-602; [4]) [µg/mL] | MIC (M. morganii GN5407) [µg/mL] | MIC (P. vulgaris HX-19) [µg/mL] | MIC (P. vulgaris No. 33) [µg/mL] | MIC (S. aureus 209P NIHJ-JC1; [5]) [µg/mL] | MIC (S. marcescens IAM 1184) [µg/mL] | MIC (S. marcescens No. 16-2; [6]) [µg/mL] | MIC (Ps. aeruginosa AK 109) [µg/mL] | MIC (Ps. aeruginosa AKR17) [µg/mL] | MIC (Ps. aeruginosa IF03445; [7]) [µg/mL] | MIC (Ps. cepacia 23; Burkholderia cepacia, 23, 16 h) [µg/mL] | MIC (A. calcoaceticus No. 4; [8]) [µg/mL] | MIC (E. coli GN5482; [5]) [µg/mL] | further results
CC(C)(O/N=C(\C(=O)N[C@@H]1C(=O)N2C(C(=O)O)=C(CSc3nc(-c4ccccc4)cs3)CS[C@H]12)c1csc(N)n1)C(=O)O [compound 11, disodium 7β-[2-(2-aminothiazol-4-yl)-2-(1-carboxylate-1-methylethoxyimino)acetamido]-3-(4-phenylthiazol-2-yl) thiomethyl-3-cephem-4-carboxylate, reference compound] | 1.56 | 1.56 | 6.2 | 12.5 | 3.12 | 3.12 | 3.12 | 0.1 | 1.56 | < 0.006 | 0.78 | 3.12 | 1.56 | 6.25 | 50 | > 100 | 12.5 | 12.5 | > 100 |  | MIC (E. coli GN5482; read-out: Minimum Inhibitory Concentration (MIC), *E. coli GN5482, lactamase-producing strain, 10^6 CFU/ml): 1.56 µg/mL
CO/N=C(\C(=O)N[C@@H]1C(=O)N2C(C(=O)O)=C(CSc3nc(-c4ccc(OC)c(OC)c4)cs3)CS[C@H]12)c1csc(N)n1 [compound 13, trifluoroacetate, reference compound] | 6.25 | 1.56 |  |  | 6.25 |  | 6.25 |  | 6.25 | 0.05 | 3.12 | 0.39 | 3.12 |  | 100 | > 100 |  | 12.5 | 100 | 3.12 | MIC (E. cloacae 963; Enterobacter cloacae, 963, 16 h, read-out: Minimum Inhibitory Concentration (MIC), E. cloacae 963): 12.5 µg/mL; MIC (E. cloacae Nek 39; *E. cloacae Nek 39, lactamase-producing strain, read-out: Minimum Inhibitory Concentration (MIC)): 25 µg/mL; MIC (K. oxytoca GN10650; 16 h, *K. oxytoca GN10650, lactamase-producing strain, read-out: Minimum Inhibitory Concentration (MIC)): 25 µg/mL; MIC (K. pneumoniae PCI-602; K. pneumoniae PCI-602, read-out: Minimum Inhibitory Concentration (MIC)): 0.05 µg/mL; MIC (S. marcescens No. 16-2; *S. marcescens No. 16-2, lactamase-producing strain, read-out: Minimum Inhibitory Concentration (MIC)): 50 µg/mL; MIC (Ps. aeruginosa IF03445; 16 h, Ps. aeruginosa IF03445, read-out: Minimum Inhibitory Concentration (MIC)): > 100 µg/mL
CC(C)O/N=C(\C(=O)N[C@@H]1C(=O)N2C(C(=O)O)=C(CSc3nnc(-c4ccc(O)c(O)c4)o3)CS[C@H]12)c1csc(N)n1 [Ex. 7, sodium 78-[2-(2-aminothiazol-4-yl)-2-isopropoxyiminoacetamido]-3-[5-(3,4-dihydroxyphenyl)-1,3,4-oxadiazol-2-yl]thiomethyl-3-cephem-4-carboxylate] | 1.56 | < 0.006 | 0.0125 | 0.05 | 0.1 | 0.1 | 0.025 | < 0.006 | 0.0125 | < 0.006 | 0.0125 |  |  | 1.56 | 0.2 | 50 | 0.39 |  |  | 0.39 | MIC (S. aureus 209P NIHJ-JC1; read-out: Minimum Inhibitory Concentration (MIC), S. aureus 209P NIHJ-JC1, 10^6 CFU/ml, 37° C., 16 hours): 1.56 µg/mL; MIC (S. marcescens IAM 1184; S. marcescens IAM 1184, 10^6 CFU/ml): 0.025 µg/mL; MIC (Ps. cepacia 23; Burkholderia cepacia, 16 h, Ps. cepacia 23, 10^6 CFU/ml): < 0.006 µg/mL; MIC (A. calcoaceticus No. 4; read-out: Minimum Inhibitory Concentration (MIC), A. calcoaceticus No. 4): 0.1 µg/mL
